The results in this text go back to PMC12856912, “Structure-Guided Semisynthesis of Blasticidin S–Amicetin Chimeras as Selective Ribosome Inhibitors” (Journal of the American Chemical Society, 2026).

Structures are written as SMILES. Read-outs that look alike come from different tables or passages of the source.

For one test, the system named is MRSA USA-300. It is filed as cell-based, Staphylococcus aureus. Particulars: for log reduction in time-kill assay: after 24 h. The method, then: MRSA USA-300 was grown overnight in cation- adjusted Muell er-Hinton broth (CAMHB), then subcultured into fresh CAMHB and incubated aerobi cally at 37°C until reaching the logarithmic phase, corresponding to an optical density (OD₆₀₀) of 0.2. The bacterial cultures were further diluted to adjust to a final concentration of 5 × 10⁵ CFU/mL in CAMHB. P3, P5, vancomycin and linezolid, were added at concentrations of 5× and 10× MIC. A DMSO-treated […]
(§1) culture serv ed as an untreated control. The cultures were aerobically maintai ned at 37°C in shaking incubator. At specifi c sampling times, aliquots were collected, resuspended in phosphate-buffered saline (PBS) and distributed to three replicates on tryptic soy agar (TSA). After a 24-hour incubation period at 37°C, the number of colony- forming units (CFUs) was evaluated.
F i g u re S 1. Time kill results against MRSA USA 300 at 5X and 10X MIC. Compound P3 ( 38) is shown as red squares, compound P5( 40) is shown as green tri angles. Vancomycin (inverted purple triangle) is used as a b act ericidal control and linezolid (orange diamond) as a bacteriostatic control with DMSO (blue circles ) as a neg ative control. […]

For the next test, the system named is MRSA NRS384 (USA300). The test is described as follows: Multi-step resistance selection (serial passage). To be noted: 15 days of serial passaging; resistance = 4-fold shift in MIC. It is filed as cell-based, Staphylococcus aureus. The method, then: as §1
F i g u re S 1. Time kill results against MRSA USA 300 at 5X and 10X MIC. Compound P3 ( 38) is shown as red squares, compound P5( 40) is shown as green tri angles. Vancomycin (inverted purple triangle) is used as a b act ericidal control and linezolid (orange diamond) as a bacteriostatic control with DMSO (blue circles ) as a neg ative control.
Multi-step resistance selection
To assess the ability of M R S A NRS384 (USA300) to develop resistance to P -NM and P-AM, a multi- step serial passage experiment was used, as described previously.4-6 MRSA strain was serially passaged with sub inhibitory concentrations of compounds and control drugs (Rifampicin and linezolid) in 1 5passages over a period of two weeks. Resistance was defined as a 4 -fold shift […]
F i g u re S 2.Multi -step resistance selection for blastimidine P3 ( 38) and blastimidine P5 (40) , rifampicin, and linezolid evaluated against methicillin -resistant S. aureus (MRSA) NRS384 (USA300) for 15days. […]

With `CN(CC[C@H](N)CC(=O)N[C@H]1C=C[C@H](n2ccc(NC(=O)c3ccc(NC(=O)[C@@](C)(N)CO)cc3)nc2=O)O[C@@H]1C(=O)NCCc1ccccc1)C(=N)N` [Blastimidine P5], the “bacteriostatic or bactericidal effect in time-kill assay” value with MRSA USA-300 (5× MIC and 10× MIC) is on record as “bactericidal activity”. The “clearance in time-kill assay” value with MRSA USA-300 (5× MIC and 10× MIC, within 24 h) is given as “complete clearance”. Moreover, the “resistance development on serial passaging” value in the test with MRSA NRS384 (USA300) is “did not produce a resistant phenotype”.

`CNc1ccc(C(=O)Nc2ccn([C@H]3C=C[C@H](NC(=O)C[C@@H](N)CCN(C)C(=N)N)[C@@H](C(=O)NCCc4ccccc4)O3)c(=O)n2)cc1` [Blastimidine P3]: the “bacteriostatic or bactericidal effect in time-kill assay” value in the test with MRSA USA-300 (5× MIC and 10× MIC) is “bacteriostatic activity”. For the same compound, the “log reduction in time-kill assay” value stood at 2.5 log with MRSA USA-300 (5× MIC) and 2.7 log in the test with MRSA USA-300 (10× MIC). Also, the “resistance development on serial passaging” value in the test on MRSA NRS384 (USA300) is listed as “did not produce a resistant phenotype”.
